Reference: PubChem BioAssay AID1918958 (Molecular Pharmacology Branch, DTP, NCI, 2023)

Test system: NCI-H196 complex spheroid viability
Test: Anticancer human tumor NCI-H196 cell line growth inhibition [LSD1];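 also: spheroids exposed to agents for 7 days before readout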;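 as to viability, T/C: 100% = DMSO vehicle control viability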
Conditions: for IC50: curve of first compound; for viability, T/C: stronger effect = lower value
Outline: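 Complex spheroids of tumor cells with HUVEC and human MSCs, exposed to iadademstat combined with other agents. Each agent tested in half-log steps from near clinical Cmax (else 10 microM top), DMSO ≤0.25%.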

[1] = second compound 0.1 µM, first compound 0.0316 µM
[2] = second compound 0.1 µM, first compound 0.1 µM
[3] = second compound 0.1 µM, first compound 0.316 µM
[4] = second compound 0.1 µM, first compound 1 µM
[5] = second compound 0.1 µM, first compound 3.16 µM
[6] = second compound 0.1 µM, first compound 10 µM
[7] = second compound 0.316 µM, first compound 0.0316 µM
[8] = second compound 0.316 µM, first compound 0.1 µM
[9] = second compound 0.316 µM, first compound 0.316 µM
[10] = second compound 0.316 µM, first compound 1 µM
[11] = second compound 0.316 µM, first compound 3.16 µM
[12] = second compound 0.316 µM, first compound 10 µM
[13] = second compound 1 µM, first compound 0.0316 µM
[14] = second compound 1 µM, first compound 0.1 µM
[15] = second compound 1 µM, first compound 0.316 µM
[16] = second compound 1 µM, first compound 1 µM
[17] = second compound 1 µM, first compound 3.16 µM
[18] = second compound 1 µM, first compound 10 µM
[19] = second compound 3.16 µM, first compound 0.0316 µM
[20] = second compound 3.16 µM, first compound 0.1 µM
[21] = second compound 3.16 µM, first compound 0.316 µM
[22] = second compound 3.16 µM, first compound 1 µM
[23] = second compound 3.16 µM, first compound 3.16 µM
[24] = second compound 3.16 µM, first compound 10 µM
[25] = second compound 10 µM, first compound 0.0316 µM
[26] = second compound 10 µM, first compound 0.1 µM
[27] = second compound 10 µM, first compound 0.316 µM
[28] = second compound 10 µM, first compound 1 µM
[29] = second compound 10 µM, first compound 3.16 µM
[30] = second compound 10 µM, first compound 10 µM

## CC1(C)CCC(CN2CCN(c3ccc(C(=O)NS(=O)(=O)c4ccc(NCC5CCOCC5)c([N+](=O)[O-])c4)c(Oc4cnc5[nH]ccc5c4)c3)CC2)=C(c2ccc(Cl)cc2)C1 + NC1CCC(NC2CC2c2ccccc2)CC1
Second compound 0.1 µM
  IC50: 5.15 µM
Second compound 0.316 µM
  IC50: 5.19 µM
Second compound 1 µM
  IC50: 5.88 µM
Second compound 3.16 µM
  IC50: 5.6 µM
Second compound 10 µM
  IC50: 6.02 µM
[1]
  viability, T/C: 98.8%
[2]
  viability, T/C: 104%
[3]
  viability, T/C: 96.8%
[4]
  viability, T/C: 97.8%
[5]
  viability, T/C: 76%
[6]
  viability, T/C: 14.6%
[7]
  viability, T/C: 107%
[8]
  viability, T/C: 106%
[9]
  viability, T/C: 98%
[10]
  viability, T/C: 98%
[11]
  viability, T/C: 78.3%
[12]
  viability, T/C: 13.2%
[13]
  viability, T/C: 101%
[14]
  viability, T/C: 103%
[15]
  viability, T/C: 101%
[16]
  viability, T/C: 106%
[17]
  viability, T/C: 89.1%
[18]
  viability, T/C: 16.5%
[19]
  viability, T/C: 109%
[20]
  viability, T/C: 104%
[21]
  viability, T/C: 95.4%
[22]
  viability, T/C: 102%
[23]
  viability, T/C: 82.8%
[24]
  viability, T/C: 16.6%
[25]
  viability, T/C: 104%
[26]
  viability, T/C: 101%
[27]
  viability, T/C: 99.2%
[28]
  viability, T/C: 103%
[29]
  viability, T/C: 86.4%
[30]
  viability, T/C: 21%

## CC1COCCN1c1cc(C2(S(C)(=N)=O)CC2)nc(-c2ccnc3[nH]ccc23)n1 (stereo not given) + NC1CCC(NC2CC2c2ccccc2)CC1
Second compound 0.1 µM
  IC50: > 10 µM
Second compound 0.316 µM
  IC50: > 10 µM
Second compound 1 µM
  IC50: > 10 µM
Second compound 3.16 µM
  IC50: > 10 µM
Second compound 10 µM
  IC50: > 10 µM
[1]
  viability, T/C: 95.7%
[2]
  viability, T/C: 100%
[3]
  viability, T/C: 99%
[4]
  viability, T/C: 87.5%
[5]
  viability, T/C: 89%
[6]
  viability, T/C: 67.4%
[7]
  viability, T/C: 101%
[8]
  viability, T/C: 99.5%
[9]
  viability, T/C: 110%
[10]
  viability, T/C: 89.5%
[11]
  viability, T/C: 88.3%
[12]
  viability, T/C: 70.8%
[13]
  viability, T/C: 101%
[14]
  viability, T/C: 96.4%
[15]
  viability, T/C: 95.5%
[16]
  viability, T/C: 85.8%
[17]
  viability, T/C: 79.5%
[18]
  viability, T/C: 72.2%
[19]
  viability, T/C: 97.4%
[20]
  viability, T/C: 100%
[21]
  viability, T/C: 93.7%
[22]
  viability, T/C: 85.5%
[23]
  viability, T/C: 79.5%
[24]
  viability, T/C: 70.2%
[25]
  viability, T/C: 96.9%
[26]
  viability, T/C: 108%
[27]
  viability, T/C: 100%
[28]
  viability, T/C: 98%
[29]
  viability, T/C: 77.3%
[30]
  viability, T/C: 68.2%
